Experimental data from patent US20250129021A1, “SMALL MOLECULE PROTEIN SYNTHESIS MODULATORS” (Interdict Bio, Inc., priority 2023, published 2025).
Read-outs that look alike come from different tables or passages of the source.

What was measured:
MYC = assay: In vitro transcription-translation (IVTT) assay, MYC reporter; assay type: biochemical; details: HeLa S3 lysate, 2 hrs at 30° C.
How it was run: (§1)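 Reporter: mCherry, P2A, then 3×FLAG-target peptide-sfGFP fusion, IRES-initiated; HeLa S3 lysate IVTT; cpd dilutions 30 μM−0.1 μM half-log in 100% DMSO (dilution-plate conc); DNA added last; 2 h, 30° C; PBS quench.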

CCND1 = assay: In vitro transcription-translation (IVTT) assay, CCND1 reporter; assay type: biochemical; details: HeLa S3 lysate, sfGFP/mCherry ratio
How it was run: as §1

MCL-1 = assay: In vitro transcription-translation (IVTT) assay, MCL-1 reporter; assay type: biochemical; details: HeLa S3 lysate, sfGFP/mCherry ratio
How it was run: as §1

ALK = assay: In vitro transcription-translation (IVTT) assay, ALK reporter; assay type: biochemical; details: HeLa S3 lysate, sfGFP/mCherry ratio, 2 hrs at 30° C.
How it was run: as §1

KRAS G12D = assay: In vitro transcription-translation (IVTT) assay, KRAS G12D reporter; assay type: biochemical; details: HeLa S3 lysate, sfGFP/mCherry ratio, 2 hrs at 30° C.
How it was run: as §1

HEK 293T = assay: Cell viability (CellTiter-Fluor), HEK 293T; assay type: cell-based; details: Homo sapiens, 24-72 hrs
Experimental: (§2) Count and dispense 2,000-10,000 cells per well (100 μL volume) in black 96-well tissue culture microplate and let cells adhere overnight. Add compound dissolved in 100% DMSO to each well as needed and incubate cells in standard culture conditions for 24-72 hrs. Final DMSO concentration in each well should be 0.1-0.5%. At the desired time point, gently aspirate compound containing media and replace with PBS to wash. Repeat wash step for 2 total washes. Remove PBS and add 100 μL CellTiter-Fluor reagent (Promega) reagent to each well. Seal plate and incubate 1 hr at room temperature with orbital shaking. Analyze fluorescence using plate reader to quantify viable cells compared with vehicle (DMSO) control.

HPAF-II = assay: Cell viability (CellTiter-Fluor), HPAF-II; assay type: cell-based; details: Homo sapiens, 24-72 hrs
Experimental: as §2

KLE = assay: Cell viability (CellTiter-Fluor), KLE; assay type: cell-based; details: Homo sapiens, 24-72 hrs
Experimental: as §2

LS411N = assay: Cell viability (CellTiter-Fluor), LS411N; assay type: cell-based; details: Homo sapiens, LS-411N, 24-72 hrs
Experimental: as §2

MCF7 = assay: Cell viability (CellTiter-Fluor), MCF7; assay type: cell-based; details: Homo sapiens, 24-72 hrs
Experimental: as §2

NCI-H1915 = assay: Cell viability (CellTiter-Fluor), NCI-H1915; assay type: cell-based; details: 24-72 hrs
Experimental: as §2

HCC38 = assay: Cell viability (CellTiter-Fluor), HCC38; assay type: cell-based; details: Homo sapiens, 24-72 hrs
Experimental: as §2

HEPG2 = assay: Cell viability (CellTiter-Fluor), HEPG2; assay type: cell-based; details: Homo sapiens, 24-72 hrs
Experimental: as §2

KATO-III = assay: Cell viability (CellTiter-Fluor), KATO-III; assay type: cell-based; details: Homo sapiens, 24-72 hrs
Experimental: as §2

MS751 = assay: Cell viability (CellTiter-Fluor), MS751; assay type: cell-based; details: 24-72 hrs
Experimental: as §2

T47D = assay: Cell viability (CellTiter-Fluor), T47D; assay type: cell-based; details: Homo sapiens, 24-72 hrs
Experimental: as §2

CCNTB1 = assay: In vitro transcription-translation (IVTT) assay, CCNTB1 reporter; assay type: biochemical; details: HeLa S3 lysate, sfGFP/mCherry ratio
How it was run: (§3)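 Cell-free HeLa S3 lysate reactions expressing sfGFP/mCherry reporter constructs ran 2 h at 30 °C with compound from half-log DMSO series (30 μM–0.1 μM as prepared), then were quenched with PBS. No-DNA background was subtracted, and the sfGFP/mCherry ratio was normalized to the no-drug control and fit for IC50.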

cGAS = assay: In vitro transcription-translation (IVTT) assay, cGAS reporter; assay type: biochemical; details: HeLa S3 lysate, sfGFP/mCherry ratio
Experimental: (§4) In vitro transcription-translation assay setup: Each assay includes a master mix containing lysate and shared components, a 96-well plate containing compound titrations for testing, a 96-well DNA plate with reporter constructs to be tested, 96-well skirted PCR plates, and 96-well flat-bottom, black, fluorescent assay plates. Reaction materials setup: (A) Master mix—15 mL conical tube (3 mL of HeLa S3 Lysate described above; 0.6 mL of ThermoFisher Accessory Proteins (#88882); 1.2 ml of ThermoFisher Reaction Mix (#88882); 0.54 mL of nuclease-free Water); (B) 96-Well Master Mix+Compound Plate (Half-log dilutions (30 μM−0.1 μM) of 4 compounds of interest are prepared in 100% DMSO); 96-Well DNA Plate (Five DNA constructs are plated into single columns within the plate. Row 1 of the column contains nuclease free H2O, all other wells contain 110 ng/μL plasmid DNA). Reactions are started by mixing 155 μL of master mix and 3.5 μL of compound serial dilutions, then 9.1 μL of master mix+compound mixture is aliquoted across 5 96-well plates. Reactions begin with final addition of 2 μL of DNA for a 11.1 μL reaction volume in each well. The entire plate is sealed, and incubated for 2 hrs at 30° C. After 2 hrs, quench the assay using 45 μL of PBS, and transfer 50 μL to a flat-bottom black microplate Quantify the sfGFP and mCherry signals from each well on each plate, taking 3 reads of each plate, and perform data analysis below.
(§5) In vitro transcription-translation assay data analysis: Each plate is read three times in channels for both sfGFP and mCherry signals. The average signal across these 3 reads is then calculated for further analysis. Control wells containing no DNA reporter are subtracted from reporter wells in the same column to remove auto-fluorescence of the lysate. Then, the ratio of sfGFP/mCherry is calculated per well, and these ratios are averaged across the triplicate experiments on the same plate. Finally, the ratio of each titration concentration is normalized to the no drug control to create the normalized stalling metric. The error on this measurement is determined by propagating error through the averaging and normalization steps. Values are plotted and fit for IC50 determination for each test sequence and titration of compound.

STING = assay: In vitro transcription-translation (IVTT) assay, STING reporter; assay type: biochemical; details: HeLa S3 lysate, sfGFP/mCherry ratio
Experimental: as §4, §5

JAK1 = assay: In vitro transcription-translation (IVTT) assay, JAK1 reporter; assay type: biochemical; details: HeLa S3 lysate, sfGFP/mCherry ratio
Experimental: as §4, §5

NFKB1 = assay: In vitro transcription-translation (IVTT) assay, NFKB1 reporter; assay type: biochemical; details: HeLa S3 lysate, sfGFP/mCherry ratio
How it was run: as §3

BCL-2 = assay: In vitro transcription-translation (IVTT) assay, BCL-2 reporter; assay type: biochemical; details: HeLa S3 lysate, sfGFP/mCherry ratio, 2 hrs at 30° C.
How it was run: as §1

[1] = IVTT assay, MYC reporter, normalized sfGFP/mCherry ratio, half-log dilutions 30 μM-0.1 μM
[2] = IVTT assay, read-out: MCL1 IC50

| Structure (SMILES) | IC50 (MYC; sfGFP/mCherry ratio) [µM] | IC50 (CCND1; 2 hrs at 30° C.) [µM] | IC50 (MCL-1; 2 hrs at 30° C.) [µM] | IC50 (MCF7) [µM] | IC50 (NCI-H1915) [µM] | IC50 (HCC38) [µM] | IC50 (HEPG2) [µM] | IC50 (T47D) [µM] | IC50 (CCND1; IVTT assay) [µM] | IC50 (MCL-1; [2]) [µM] | IC50 (CCNTB1) [µM] | IC50 (cGAS) [µM] | IC50 (STING) [µM] | IC50 (HEK 293T) [µM] | IC50 (HPAF-II) [µM] | IC50 (KLE) [µM] | IC50 (LS411N) [µM] | IC50 (KATO-III) [µM] | IC50 (MS751) [µM] | IC50 (MYC; [1]) [µM] | also measured |
| --- | --- | --- | --- | --- | --- | --- | --- | --- | --- | --- | --- | --- | --- | --- | --- | --- | --- | --- | --- | --- | --- |
| COc1ccc(C[C@H]2NC[C@H](O)[C@H]2OC(=O)NCc2c[nH]nn2)cc1 [V187536, (2R,3S,4S)-4-hydroxy-2-[(4-methoxyphenyl)methyl]pyrrolidin-3-yl N-(1H-1,2,3-triazol-4-ylmethyl) carbamate; trifluoroacetic acid] | < 10 | < 10 | < 10 | 1 to 4 | 1 to 4 | 1 to 4 | 1 to 4 | 1 to 4 |  |  |  |  |  | 0.25 to 1 | 1 to 4 | 1 to 4 | 1 to 4 | 1 to 4 | 0.25 to 1 |  | IC50 (ALK): < 10 µM; IC50 (KRAS G12D): < 10 µM |
| O=C(NCc1ccnc(N2CCC2)c1)O[C@@H]1[C@@H](O)CN[C@@H]1Cc1ccc(-c2cnco2)cc1 [V192160, (2R,3S,4S)-4-hydroxy-2-(4-(oxazol-5-yl)benzyl)pyrrolidin-3-yl ((2-(azetidin-1-yl)pyridin-4-yl)methyl)carbamate] |  |  |  |  |  |  |  |  | < 10 | < 10 | < 10 | < 10 | < 10 |  |  |  |  |  |  | < 10 | IC50 (JAK1): < 10 µM; IC50 (NFKB1): < 10 µM |
| O=C(NCCOC(F)(F)F)O[C@@H]1[C@@H](O)CN[C@@H]1Cc1ccc(-c2cnco2)cc1 [V192265, (2R,3S,4S)-4-hydroxy-2-{[4-(1,3-oxazol-5-yl)phenyl]methyl}pyrrolidin-3-yl N-[2-(trifluoromethoxy)ethyl]carbamate] |  |  |  |  |  |  |  |  | < 10 | < 10 | < 10 | < 10 | < 10 |  |  |  |  |  |  | < 10 | IC50 (JAK1): < 10 µM; IC50 (NFKB1): < 10 µM |

Second part, led by results:

| IC50 (MYC; sfGFP/mCherry ratio) [µM] | IC50 (CCND1; 2 hrs at 30° C.) [µM] | IC50 (MCL-1; 2 hrs at 30° C.) [µM] | IC50 (MCF7) [µM] | IC50 (NCI-H1915) [µM] | IC50 (HCC38) [µM] | IC50 (HEPG2) [µM] | IC50 (T47D) [µM] | IC50 (CCND1; IVTT assay) [µM] | IC50 (MCL-1; [2]) [µM] | IC50 (CCNTB1) [µM] | IC50 (cGAS) [µM] | IC50 (STING) [µM] | Structure (SMILES) | IC50 (HEK 293T) [µM] | IC50 (HPAF-II) [µM] | IC50 (KLE) [µM] | IC50 (LS411N) [µM] | IC50 (KATO-III) [µM] | IC50 (MS751) [µM] | IC50 (MYC; [1]) [µM] | also measured |
| --- | --- | --- | --- | --- | --- | --- | --- | --- | --- | --- | --- | --- | --- | --- | --- | --- | --- | --- | --- | --- | --- |
| < 10 | < 10 | < 10 | 0.25 to 1 | 0.25 to 1 | 0.25 to 1 | 1 to 4 | 0.25 to 1 |  |  |  |  |  | COc1ccc(C[C@H]2NC[C@H](O)[C@H]2OC(=O)NCCc2cn[nH]c2)cc1 [V187509, (2R,3S,4S)-4-hydroxy-2-[(4-methoxyphenyl)methyl]pyrrolidin-3-yl N-[2-(1H-pyrazol-4-yl)ethyl]carbamate] | < 0.25 | 0.25 to 1 | 0.25 to 1 | 0.25 to 1 | 0.25 to 1 | < 0.25 |  | IC50 (BCL-2): < 10 µM; IC50 (KRAS G12D): < 10 µM |
|  |  |  |  |  |  |  |  | < 10 | < 10 | < 10 | < 10 | < 10 | O=C(NCCC1CCNCC1)O[C@@H]1[C@@H](O)CN[C@@H]1Cc1ccc(-c2cnco2)cc1 [V192049, (2R,3S,4S)-4-hydroxy-2-{[4-(1,3-oxazol-5-yl)phenyl]methyl}pyrrolidin-3-yl N-[2-(piperidin-4-yl)ethyl]carbamate] |  |  |  |  |  |  | < 10 | IC50 (JAK1): < 10 µM; IC50 (NFKB1): < 10 µM |
| < 10 | < 10 | < 10 | < 0.25 | < 0.25 | 0.25 to 1 | 1 to 4 | < 0.25 |  |  |  |  |  | COc1ccc(C[C@H]2NC[C@H](O)[C@H]2OC(=O)NCc2ccncc2)cc1 [V187987, (2R,3S,4S)-4-hydroxy-2-[(4-methoxyphenyl)methyl]pyrrolidin-3-yl N-(pyridin-4-ylmethyl)carbamate] | < 0.25 | 0.25 to 1 | 0.25 to 1 | < 0.25 | 0.25 to 1 | 0.25 to 1 |  | IC50 (BCL-2): < 10 µM |
